Reference: ChEMBL document CHEMBL3808308, “Synergistic potentiation of (-)-lomaiviticin A cytotoxicity by the ATR inhibitor VE-821” (Bioorg Med Chem Lett, 2016)
Active and inactive are the calls of the source. The rule behind the calls is not given here.

Assays:
K562 [1] = experiment: Potentiation of 0.05 nM (-)-lomaiviticin A-induced cytotoxicity against human K562 cells assessed as fraction ratio affected at 10 uM after 24 hrs by cell titer-glo luminescence assay; assay type: functional
K562 [2] = experiment: Potentiation of 0.25 nM (-)-lomaiviticin A-induced cytotoxicity against human K562 cells assessed as fraction ratio affected at 10 uM after 24 hrs by cell titer-glo luminescence assay; assay type: functional
K562 [3] = experiment: Potentiation of 0.5 nM (-)-lomaiviticin A-induced cytotoxicity against human K562 cells assessed as fraction ratio affected at 10 uM after 24 hrs by cell titer-glo luminescence assay; assay type: functional
K562 [4] = experiment: Potentiation of 2.5 nM (-)-lomaiviticin A-induced cytotoxicity against human K562 cells assessed as fraction ratio affected at 10 uM after 24 hrs by cell titer-glo luminescence assay; assay type: functional
K562 [5] = experiment: Potentiation of 5 nM (-)-lomaiviticin A-induced cytotoxicity against human K562 cells assessed as fraction ratio affected at 10 uM after 24 hrs by cell titer-glo luminescence assay; assay type: functional
K562 [6] = experiment: Potentiation of 0.025 nM (-)-lomaiviticin A-induced cytotoxicity against human K562 cells assessed as combination index at 10 uM after 24 hrs by cell titer-glo luminescence assay; assay type: functional
K562 [7] = experiment: Potentiation of 0.05 nM (-)-lomaiviticin A-induced cytotoxicity against human K562 cells assessed as combination index at 10 uM after 24 hrs by cell titer-glo luminescence assay; assay type: functional
K562 [8] = experiment: Potentiation of 0.25 nM (-)-lomaiviticin A-induced cytotoxicity against human K562 cells assessed as combination index at 10 uM after 24 hrs by cell titer-glo luminescence assay; assay type: functional
K562 [9] = experiment: Potentiation of 0.5 nM (-)-lomaiviticin A-induced cytotoxicity against human K562 cells assessed as combination index at 10 uM after 24 hrs by cell titer-glo luminescence assay; assay type: functional
K562 [10] = experiment: Potentiation of 2.5 nM (-)-lomaiviticin A-induced cytotoxicity against human K562 cells assessed as combination index at 10 uM after 24 hrs by cell titer-glo luminescence assay; assay type: functional
K562 [11] = experiment: Potentiation of 5 nM (-)-lomaiviticin A-induced cytotoxicity against human K562 cells assessed as combination index at 10 uM after 24 hrs by cell titer-glo luminescence assay; assay type: functional
K562 [12] = experiment: Potentiation of 0.025 nM (-)-lomaiviticin A-induced cytotoxicity against human K562 cells assessed as fraction ratio affected at 10 uM after 48 hrs by cell titer-glo luminescence assay; assay type: functional
K562 [13] = experiment: Potentiation of 0.05 nM (-)-lomaiviticin A-induced cytotoxicity against human K562 cells assessed as fraction ratio affected at 10 uM after 48 hrs by cell titer-glo luminescence assay; assay type: functional
K562 [14] = experiment: Potentiation of 0.25 nM (-)-lomaiviticin A-induced cytotoxicity against human K562 cells assessed as fraction ratio affected at 10 uM after 48 hrs by cell titer-glo luminescence assay; assay type: functional
K562 [15] = experiment: Potentiation of 0.5 nM (-)-lomaiviticin A-induced cytotoxicity against human K562 cells assessed as fraction ratio affected at 10 uM after 48 hrs by cell titer-glo luminescence assay; assay type: functional
K562 [16] = experiment: Potentiation of 2.5 nM (-)-lomaiviticin A-induced cytotoxicity against human K562 cells assessed as fraction ratio affected at 10 uM after 48 hrs by cell titer-glo luminescence assay; assay type: functional
K562 [17] = experiment: Potentiation of 5 nM (-)-lomaiviticin A-induced cytotoxicity against human K562 cells assessed as fraction ratio affected at 10 uM after 48 hrs by cell titer-glo luminescence assay; assay type: functional
K562 [18] = experiment: Potentiation of 0.025 nM (-)-lomaiviticin A-induced cytotoxicity against human K562 cells assessed as combination index at 10 uM after 48 hrs by cell titer-glo luminescence assay; assay type: functional
K562 [19] = experiment: Potentiation of 0.05 nM (-)-lomaiviticin A-induced cytotoxicity against human K562 cells assessed as combination index at 10 uM after 48 hrs by cell titer-glo luminescence assay; assay type: functional
K562 [20] = experiment: Potentiation of 0.25 nM (-)-lomaiviticin A-induced cytotoxicity against human K562 cells assessed as combination index at 10 uM after 48 hrs by cell titer-glo luminescence assay; assay type: functional
K562 [21] = experiment: Potentiation of 0.5 nM (-)-lomaiviticin A-induced cytotoxicity against human K562 cells assessed as combination index at 10 uM after 48 hrs by cell titer-glo luminescence assay; assay type: functional
K562 [22] = experiment: Potentiation of 2.5 nM (-)-lomaiviticin A-induced cytotoxicity against human K562 cells assessed as combination index at 10 uM after 48 hrs by cell titer-glo luminescence assay; assay type: functional
K562 [23] = experiment: Potentiation of 5 nM (-)-lomaiviticin A-induced cytotoxicity against human K562 cells assessed as combination index at 10 uM after 48 hrs by cell titer-glo luminescence assay; assay type: functional
K562 [24] = experiment: Cytotoxicity against human K562 cells assessed as decrease in cell viability up to 10 uM after 24 to 48 hrs by cell titer-glo luminescence assay; assay type: cell-based
K562 [25] = experiment: Potentiation of 50 pM (-)-lomaiviticin A-induced cytotoxicity against human K562 cells assessed as decrease in cell viability at 10 uM after 24 hrs by cell titer-glo luminescence assay; assay type: functional
K562 [26] = experiment: Potentiation of 50 pM (-)-lomaiviticin A-induced cytotoxicity against human K562 cells assessed as decrease in cell viability at 10 uM after 48 hrs by cell titer-glo luminescence assay; assay type: functional
K562 [27] = experiment: Potentiation of 500 pM (-)-lomaiviticin A-induced cytotoxicity against human K562 cells assessed as decrease in cell viability at 10 uM after 48 hrs by cell titer-glo luminescence assay; assay type: functional
K562 [28] = experiment: Induction of DNA double-strand breaks in human K562 cells after 24 hrs by neutral comet assay in presence of (-)-lomaiviticin A; assay type: functional, cell-based
K562 [29] = experiment: Induction of DNA double-strand breaks in human K562 cells assessed as median tail moment at 10 uM after 24 hrs by neutral comet assay in presence of 500 pM (-)-lomaiviticin A; assay type: functional
K562 [30] = experiment: Induction of apoptosis in human K562 cells assessed as gammaH2AX/53BP1 levels at 10 uM after 48 hrs by DAPI staining based immunofluorescence microscopy in presence of 25 to 250 pM (-)-lomaiviticin A; assay type: functional, cell-based
K562 [31] = experiment: Induction of apoptosis in human K562 cells assessed as gammaH2AX/53BP1 levels at 10 uM after 48 hrs by DAPI staining based immunofluorescence microscopy; assay type: cell-based; conditions: k562, 48 h
K562 [32] = experiment: Cytotoxicity against human K562 cells assessed as decrease in cell viability up to 2.5 to 10 uM after 24 to 48 hrs by cell titer-glo luminescence assay; assay type: cell-based
[33] = Cytotoxicity against human K562 cells assessed as decrease in cell viability after 24 hrs by cell titer-glo luminescence assay; assay type: cell-based; conditions: read-out: ED50
[34] = Cytotoxicity against human K562 cells assessed as decrease in cell viability after 48 hrs by cell titer-glo luminescence assay; assay type: cell-based; conditions: read-out: ED50
K562 [35] = experiment: Potentiation of 0.025 nM (-)-lomaiviticin A-induced cytotoxicity against human K562 cells assessed as fraction ratio affected at 10 uM after 24 hrs by cell titer-glo luminescence assay; assay type: functional
K562 [36] = experiment: Potentiation of (-)-lomaiviticin A-induced cytotoxicity against human K562 cells assessed as (-)-lomaiviticin A ED50 at compound to (-)-lomaiviticin A ratio of 200:1 after 48 hrs by cell titer-glo luminescence assay (reference value: 0.23776 nM); assay type: functional; conditions: K562, 48 h, read-out: ED50 (the source's name)
K562 [37] = experiment: Potentiation of 7 nM (-)-lomaiviticin A-induced cytotoxicity against human K562 cells assessed as combination index at 1.4 uM after 48 hrs by cell titer-glo luminescence assay; assay type: functional
K562 [38] = experiment: Cytotoxicity against human K562 cells assessed as decrease in cell viability after 24 to 48 hrs by cell titer-glo luminescence assay; assay type: cell-based
K562 [39] = experiment: Potentiation of 0.025 nM (-)-lomaiviticin A-induced cytotoxicity against human K562 cells assessed as fraction ratio affected at 0.005 uM after 48 hrs by cell titer-glo luminescence assay; assay type: functional
K562 [40] = experiment: Potentiation of 0.125 nM (-)-lomaiviticin A-induced cytotoxicity against human K562 cells assessed as fraction ratio affected at 0.025 uM after 48 hrs by cell titer-glo luminescence assay; assay type: functional
K562 [41] = experiment: Potentiation of 0.25 nM (-)-lomaiviticin A-induced cytotoxicity against human K562 cells assessed as fraction ratio affected at 0.05 uM after 48 hrs by cell titer-glo luminescence assay; assay type: functional
K562 [42] = experiment: Potentiation of 1.25 nM (-)-lomaiviticin A-induced cytotoxicity against human K562 cells assessed as fraction ratio affected at 0.25 uM after 48 hrs by cell titer-glo luminescence assay; assay type: functional
K562 [43] = experiment: Potentiation of 2.5 nM (-)-lomaiviticin A-induced cytotoxicity against human K562 cells assessed as fraction ratio affected at 0.5 uM after 48 hrs by cell titer-glo luminescence assay; assay type: functional
K562 [44] = experiment: Potentiation of 7 nM (-)-lomaiviticin A-induced cytotoxicity against human K562 cells assessed as fraction ratio affected at 1.4 uM after 48 hrs by cell titer-glo luminescence assay; assay type: functional
K562 [45] = experiment: Potentiation of 0.025 nM (-)-lomaiviticin A-induced cytotoxicity against human K562 cells assessed as combination index at 0.005 uM after 48 hrs by cell titer-glo luminescence assay; assay type: functional
K562 [46] = experiment: Potentiation of 0.125 nM (-)-lomaiviticin A-induced cytotoxicity against human K562 cells assessed as combination index at 0.025 uM after 48 hrs by cell titer-glo luminescence assay; assay type: functional
K562 [47] = experiment: Potentiation of 0.25 nM (-)-lomaiviticin A-induced cytotoxicity against human K562 cells assessed as combination index at 0.05 uM after 48 hrs by cell titer-glo luminescence assay; assay type: functional
K562 [48] = experiment: Potentiation of 1.25 nM (-)-lomaiviticin A-induced cytotoxicity against human K562 cells assessed as combination index at 0.25 uM after 48 hrs by cell titer-glo luminescence assay; assay type: functional
K562 [49] = experiment: Potentiation of 2.5 nM (-)-lomaiviticin A-induced cytotoxicity against human K562 cells assessed as combination index at 0.5 uM after 48 hrs by cell titer-glo luminescence assay; assay type: functional

Question: For `CS(=O)(=O)c1ccc(-c2cnc(N)c(C(=O)Nc3ccccc3)n2)cc1`, which Ratio (K562 [1]) is on record?
Answer: 0.1819

Question: What about the Ratio (K562 [2]) of the same compound?
Answer: 0.6516

Question: What about the Ratio (K562 [3]) of the same compound?
Answer: 0.814

Question: And the Ratio (K562 [4])?
Answer: 0.8772

Question: What about the Ratio (K562 [5]) of the same compound?
Answer: 0.9357

Question: What about the CI (K562 [6]) of the same compound?
Answer: 0.1138

Question: What about the CI (K562 [7]) of the same compound?
Answer: 0.0774

Question: And the CI (K562 [8])?
Answer: 0.06881

Question: And the CI (K562 [9])?
Answer: 0.09717

Question: And the CI (K562 [10])?
Answer: 0.4019

Question: What about the CI (K562 [11]) of the same compound?
Answer: 0.6748

Question: And the Ratio (K562 [12])?
Answer: 0.3737

Question: And the Ratio (K562 [13])?
Answer: 0.6017

Question: What about the Ratio (K562 [14]) of the same compound?
Answer: 0.9206

Question: And the Ratio (K562 [15])?
Answer: 0.961

Question: And the Ratio (K562 [16])?
Answer: 0.966

Question: And the Ratio (K562 [17])?
Answer: 0.9837

Question: And the CI (K562 [18])?
Answer: 0.2066

Question: What about the CI (K562 [19]) of the same compound?
Answer: 0.1328

Question: And the CI (K562 [20])?
Answer: 0.1058

Question: And the CI (K562 [21])?
Answer: 0.1448

Question: What about the CI (K562 [22]) of the same compound?
Answer: 0.6223

Question: And the CI (K562 [23])?
Answer: 1.029

Question: What about the Activity (K562 [24]) of the same compound?
Answer: < 13%

Question: And the Activity (K562 [25])?
Answer: 18%

Question: And the Activity (K562 [26])?
Answer: 40%

Question: What about the Activity (K562 [27]) of the same compound?
Answer: 96%

Question: And the Activity (K562 [28])?
Answer: Dose-dependent effect

Question: What about the Activity (K562 [29]) of the same compound?
Answer: 34

Question: What about the Activity (K562 [30]) of the same compound?
Answer: Active

Question: What about the Activity (K562 [31]) of the same compound?
Answer: Non-toxic

Question: What about the Activity (K562 [32]) of the same compound?
Answer: Non-toxic

Question: What about the CC50 at 24 h [33] of the same compound?
Answer: 449 µM

Question: And the CC50 at 48 h [34]?
Answer: 71 µM

Question: What about the Ratio (K562 [35]) of the same compound?
Answer: 0.08806

Question: For `Cn1c(=O)n(-c2ccc(C(C)(C)C#N)cc2)c2c3cc(-c4cnc5ccccc5c4)ccc3ncc21` [DACTOLISIB], which EC50 (K562 [36]) is on record?
Answer: 20.2 nM

Question: What about the CC50 at 48 h [34] of the same compound?
Answer: 0.0489 µM

Question: What about the CI (K562 [37]) of the same compound?
Answer: 0.3291

Question: What about the Activity (K562 [38]) of the same compound?
Answer: Dose-dependent effect

Question: And the Ratio (K562 [39])?
Answer: 0.2836

Question: And the Ratio (K562 [40])?
Answer: 0.4369

Question: And the Ratio (K562 [41])?
Answer: 0.6128

Question: And the Ratio (K562 [42])?
Answer: 0.9514

Question: What about the Ratio (K562 [43]) of the same compound?
Answer: 0.9739

Question: What about the Ratio (K562 [44]) of the same compound?
Answer: 0.9929

Question: And the CI (K562 [45])?
Answer: 8.288

Question: And the CI (K562 [46])?
Answer: 2.3513

Question: And the CI (K562 [47])?
Answer: 0.8101

Question: What about the CI (K562 [48]) of the same compound?
Answer: 0.3514

Question: What about the CI (K562 [49]) of the same compound?
Answer: 0.3901
